Measured values taken from US20110104144A1, “METHODS FOR TREATING CUTANEOUS LUPUS USING AMINOISOINDOLINE COMPOUNDS” (CELGENE CORPORATION, priority 2005, published 2011).

Key:
P-Selectin = test: HUVEC cell surface expression of P-Selectin by flow cytometry; assay type: cell-based, Human; conditions: 10 μM; for increase of TNF-α-induced cell expression of P-Selectin above baseline: TNF-α (1 ng/ml) stimulated, FIG. 3; for inhibition of P-Selectin expression: unstimulated, FIG. 2
Protocol: (§1) A) Materials. Human Umbilical Vein Endothelial Cells (HUVEC) sent from LifeBank, were tested in Experiments A-K with several adhesion molecules. The adhesion molecules tested were CD51/CD61FITC (obtained from BD PharMingen, San Diego, Calif.; Catalog No. 555505), ICAM-1 PE also known as CD54 (obtained from BD PharMingen, San Diego, Calif.; Catalog No. 555511), ICAM-2 also known as CD102 (obtained from Research Diagnostics Inc., Concord, Mass.; Catalog No. RDI-CBL539FT), VCAM-1 (obtained from BD PharMingen, San Diego, Calif.; Catalog No. 555647), P-Selectin FITC (obtained from R&D Systems, Inc., Minneapolis, Minn.; Catalog No. BBA34), E-Selectin FITC (obtained from R&D Systems, Inc., Minneapolis, Minn.; Catalog No. BBA21), HLA Class I FITC (obtained from BD PharMingen, San Diego, Calif.; Catalog No. 555553), HLA Class II PE (obtained from BD PharMingen, San Diego, Calif.; Catalog No. 555558), CD44 FITC (obtained from BD PharMingen, San Diego, Calif.; Catalog No. 347943), CD144 (Cadherin VE) (obtained from CHEMICON International, Inc., Temecula, Calif.; Catalog No. MAB1989), IgG2a FITC (obtained from BD PharMingen, San Diego, Calif.; Cat #556652), Ms IgG2a (obtained from CHEMICON International, Inc., Temecula, Calif.; Cat. No. PP102), IgG1 FITC (obtained from BD PharMingen, San Diego, Calif.; Cat. No. 349041) and IgG1 PE (obtained from BD PharMingen, San Diego, Calif.; Cat. No. 349043).
(§2) Compound (1) ((+)-2-[1-(3-ethoxy-4-methoxyphenyl)-2-methylsulfonylethyl]-4-acetylaminoisoindoline-1,3-dione) and Compound (2) (4-(amino)-2-(2,6-dioxo(3-piperidyl))-isoindoline-1,3-dione) were obtained according to the preparation procedures disclosed herein. 16,16-Dimethyl-PGE2 (hereinafter PGE2) was obtained from BIOMOL International, L.P. (Plymouth Meeting, Pa.; Catalog No. PG-021). TNF-αwas obtained from Pierce Biotechnology (Rockford, Ill.; Catalog No. RTNFA 10).
(§3) B) Methods. HUVEC's were plated on 6-well plates at a concentration of 1×10^5 cells/well in 3 ml EBM® endothelial basal media (obtained from Cambrex Corporation, East Rutherford, N.J.; Catalog No. CC-3121) and singlequots (obtained from Cambrex Corporation, East Rutherford, N.J.; Catalog No. CC-4133). The cells were incubated overnight in a 37° C. and 5% CO2 humidified incubator to allow cells to attach. The old media was removed in next day and replaced with 3 ml fresh EBM® endothelial basal media. Then, samples of 3 μl of 10 mM of Compound (1), Compound (2), PGE2 and a mixture of Compound (1) and PGE2 were added separately to each well of the plates in duplicate to give a final concentration of 10 μM. An unstimulated DMSO control and a TNF-α-stimulated control were also added in duplicate. The plates were incubated in a 37° C. and 5% CO2 humidified incubator for 1 hr. […] The plates were incubated overnight in a 37° C. and 5% CO2 humidified incubator. The cells were also tested without TNF-α. The media was removed in the next day and each well was washed with 3 ml of phosphate buffered saline (PBS). Then, 3 ml of PBS containing 1 mM of EDTA (ethylenediaminetetraacetate) was added to each well to allow the cells to detach. Once the cells detached, they were gently scraped and placed in 4.5 ml Falcon tubes. The tubes were then centrifuged at 1200 RPM for 8 minutes at 4° C. The supernatant was carefully removed. Next, 50 μl of PBS-FACS buffer (5% fetal bovine serum (FBS), 0.02% sodium azide in PBS) and 20 μl of antibodies were added to all tubes as follows:
(§4) After the antibodies were added, the tubes were incubated on ice for 30 minutes and covered with foil. Then, the tubes were centrifuged at 1200 RPM for 8 minutes at 4° C. The supernatant was carefully removed. The cells were re-suspended in 2 ml of PBS-FACS buffer and centrifuged again as above. The supernatant was carefully removed again and the cells were re-suspended in 500 μl of PBS-FACS buffer. The tubes were then analyzed using a flow cytometer. […]

ICAM-1 = test: HUVEC cell surface expression of ICAM-1 by flow cytometry; assay type: cell-based, Human; conditions: TNF-α stimulated, 10 μM, FIG. 5
Protocol: (§5) A) Materials. Human Umbilical Vein Endothelial Cells (HUVEC) sent from LifeBank, were tested in Experiments A-K with several adhesion molecules. […]

VE-Cadherin = test: HUVEC cell surface expression of VE-Cadherin (CD144) by flow cytometry; assay type: cell-based, Human; conditions: 10 μM, FIG. 4
Protocol: as §1, §2
(§6) B) Methods. […]

CD44 = test: HUVEC cell surface expression of CD44 by flow cytometry; assay type: cell-based, Human; conditions: 10 μM, FIG. 4
Protocol: as §1, §2, §6

VCAM = test: HUVEC cell surface expression of VCAM by flow cytometry; assay type: cell-based, Human; conditions: TNF-α stimulated, 10 μM, FIG. 5
Protocol: as §5

E-Selectin [1] = test: HUVEC cell surface expression of E-Selectin by flow cytometry; assay type: cell-based, Human; conditions: 10 μM; for E-Selectin cell surface expression: unstimulated, FIG. 2
Protocol: as §1, §2, §3, §4

TNF-α = test: Ultraviolet B-induced TNF-alpha production by human keratinocytes (HEKn cells), TNF-α ELISA; assay type: cell-based
Protocol: Cutaneous lupus patients often experience disease exacerbation when exposed to ultraviolet (UV) light. This is thought to be due to UVB-induced TNF-α production by keratinocytes. […] In vitro study for cutaneous lupus was performed to investigate how the compounds of the invention affect TNF-α production in keratinocytes.
Human neonatal foreskin epidermal keratinocytes (HEKn cells) were obtained from Cascade Biologics and were grown in serum-free medium supplemented with growth factors. When cells reached 80% confluency, they were trypsinized and plated at 1×10^5 cells/well in 6 well dishes. Plates were incubated for 24 hours to allow cell adhesion. To optimize conditions for the release of TNF-α, cells were treated with various degrees of exposure to UVB radiation (1, 4 and 24 hours). Supernatants were then collected and tested in the TNF-α ELISA.
Supernatants were collected and tested in the TNF-α ELISA at 1 Hour (bars with no pattern), 4 Hours (lined bars), or 24 Hours (checkered bars) after exposure. Results are the average of two experiments. The results shown in FIG. 7 indicate that supernatants collected 24 hours after HEKn cells were exposed to UVB had the highest levels of TNF-α. After exposure to 10, 50, or 100 mJ/cm^2, cells remained attached to the wells and no cell damage was observed. The 300 mJ/cm^2 UVB exposure was too high for the HEKn cells and many cells were damaged and detached from the bottom of the wells.
Cells were treated for 4 hours with (+)-2-[1-(3-ethoxy-4-methoxyphenyl)-2-methylsulfonylethyl]-4-acetylaminoisoindoline-1,3-dione (compound named 10004), or cyclopropyl {2-[(1S)-1-(3-ethoxy-4-methoxyphenyl)-2-(methylsulfonyl)ethyl]-3-oxoisoindolin-4-yl}carboxamide (compound named 11050) at 0.1 μM, 1 μM, or 10 μM. Medium was aspirated the cells washed and then exposed to 50 mJ/cm^2 UVB radiation. Fresh medium was added and the cells were incubated for 24 hours. Supernatents were removed and tested in the TNF-α ELISA kit from Pierce Biotechnology. […] (FIG. 8). […] (FIG. 8).
In other experiments, cells were treated for 4 hours with 3-(4-amino-1-oxo-1,3-dihydro-isoindol-2-yl)-piperidine-2,6-dione (compound named 5013), (+)-2-[1-(3-ethoxy-4-methoxyphenyl)-2-methylsulfonylethyl]-4-acetylaminoisoindoline-1,3-dione (compound named 10004) or compound named 16057, at 0.1 μM or 1 μM. […] (FIG. 9). […] (FIG. 9).

CD51/61 = test: HUVEC cell surface expression of CD51/61 by flow cytometry; assay type: cell-based, Human; conditions: unstimulated, 10 μM, FIG. 1
Protocol: as §1, §2, §6

E-Selectin [2] = test: E-Selectin cell surface expression in HUVEC detected by ELISA; assay type: cell-based, Human; conditions: HUVEC, 0.25, 0.5 and 1 ng/ml of TNF-α, 10 μM, FIG. 6
Text: In this assay, the mixture of Compound (1) and PGE2 appeared to work synergistically.

[3] = TNF-α (1 ng/ml) stimulated, FIG. 3
[4] = HEKn cells treated 4 hours at 0.1 μM, 1 μM, or 10 μM, 50 mJ/cm^2 UVB, 24 hours, FIG. 8

## CCOc1cc(C(CS(C)(=O)=O)N2C(=O)c3cccc(NC(C)=O)c3C2=O)ccc1OC (single isomer, unassigned; (+)) [Compound (1), (+)-2-[1-(3-ethoxy-4-methoxyphenyl)-2-methylsulfonylethyl]-4-acetylaminoisoindoline-1,3-dione]
P-Selectin
  increase of TNF-α-induced cell expression of P-Selectin above baseline: 40%
  inhibition of P-Selectin expression: approximately 55%
P-Selectin; TNF-α stimulated, FIG. 5
  increase of P-Selectin cell surface expression: approximately 35%
ICAM-1
  increase of ICAM-1 cell surface expression: approximately 35%
VE-Cadherin
  TNF-α-stimulated cell surface expression of VE-Cadherin: unaffected
CD44
  inhibition of TNF-α-stimulated cell surface expression of CD44: approximately 30%
VCAM
  decrease of VCAM expression: 30%
E-Selectin [1]; [3]
  TNF-α-stimulated cell surface expression of E-Selectin: unaffected
E-Selectin [1]
  E-Selectin cell surface expression: inhibited
TNF-α; HEKn cells treated 4 hours at 0.1 μM or 1 μM, UVB, FIG. 9
  levels of TNF-α released after UVB exposure: dose dependent decrease
TNF-α; [4]
  levels of TNF-α released after UVB exposure: dose dependent decrease
TNF-α; HEKn cells treated 4 hours at 10 μM, 50 mJ/cm^2 UVB, 24 hours, FIG. 8
  TNF-α levels after UVB exposure with the 10 μM treatment: TNF-α levels similar to cells not treated with radiation
CD51/61
  CD51/61 cell surface expression compared to untreated conditions: unaffected

## CCOc1cc([C@@H](CS(C)(=O)=O)N2Cc3cccc(NC(=O)C4CC4)c3C2=O)ccc1OC [Compound 11050, cyclopropyl {2-[(1S)-1-(3-ethoxy-4-methoxyphenyl)-2-(methylsulfonyl)ethyl]-3-oxoisoindolin-4-yl}carboxamide]
TNF-α; [4]
  levels of TNF-α released after UVB exposure: dose dependent decrease

## Nc1cccc2c1CN(C1CCC(=O)NC1=O)C2=O (stereo not drawn) [Compound 5013, 3-(4-amino-1-oxo-1,3-dihydro-isoindol-2-yl)-piperidine-2,6-dione]
TNF-α; HEKn cells treated 4 hours at 0.1 μM, UVB, FIG. 9
  TNF-α levels after UVB exposure with the 0.1 μM treatment: TNF-α levels lower than cells not treated with radiation

## CCCCC(C)(C)[C@H](O)/C=C/[C@H]1[C@H](O)CC(=O)[C@@H]1C/C=C\CCCC(=O)O [PGE2, 16,16-Dimethyl-PGE2, reference compound]
VE-Cadherin
  TNF-α-stimulated cell surface expression of VE-Cadherin: unaffected
CD44
  TNF-α-stimulated cell surface expression of CD44: no detectable effects
VCAM
  cell surface expression of VCAM: significantly decreased
E-Selectin [1]; [3]
  inhibition of TNF-α-induced E-Selectin expression: 50%
E-Selectin [1]; TNF-α stimulated, FIG. 5
  cell surface expression of E-Selectin: significantly decreased
CD51/61
  reduction in the CD51/61 cell surface expression: 20%

## Nc1cccc2c1C(=O)N(C1CCC(=O)NC1=O)C2=O (stereo not drawn) [Compound (2), 4-(amino)-2-(2,6-dioxo(3-piperidyl))-isoindoline-1,3-dione]
P-Selectin
  increase of TNF-α-induced cell expression of P-Selectin above baseline: > 2 fold
  inhibition of P-Selectin expression: ~35%
P-Selectin; TNF-α stimulated, FIG. 5
  increase of P-Selectin expression: ~2 fold
VE-Cadherin
  TNF-α-stimulated cell surface expression of VE-Cadherin: unaffected
CD44
  inhibition of TNF-α-stimulated cell surface expression of CD44: approximately 30%
E-Selectin [2]
  TNF-α-stimulated E-Selectin cell surface expression (ELISA): inhibitory effect
E-Selectin [1]; [3]
  inhibition of TNF-α-induced E-Selectin expression: approximately 20%
E-Selectin [1]
  E-Selectin cell surface expression: inhibited
CD51/61
  CD51/61 cell surface expression compared to untreated conditions: unaffected
